Results published in patent US9453026B2, “ACC inhibitors and uses thereof” (Gilead Apollo, Inc., priority 2011, dated 2016).

Legend:
HepG2 cells = assay: [14C] Acetate Incorporation HepG2 Cellular Assay; format: cell-based; settings: Hep-G2 cells, FIG. 7
Description: Compounds of the present invention were evaluated in a [^14C] Acetate Incorporation Assay. An exemplary procedure for the assay, which measures the incorporation of isotopically labeled acetate into fatty acids, follows. HepG2 cells were maintained in T-75 flasks containing DMEM supplemented with 2 mM 1-glutamine, penicillin G (100 units/ml), streptomycin 100 μg/ml with 10% FBS and incubated in a humidified incubator with 5% CO2 at 37° C. Cells were fed every 2-3 days. On Day 1. cells were seeded in 24 well plates at a density of 1.2×10^5 cells/ml/well with the growth medium. On Day 3 the medium was replaced with fresh medium containing 10% FBS. On Day 4 the medium was replaced with 0.5 ml of fresh medium containing test compound (in DMSO; final [DMSO] is 0.5%) and the cells were incubated at 37° C. for 1 hour. To one copy of plate, 4 ul of [2-^14C]acetate (56 mCi/mmol; 1 mCi/ml; PerkinElmer) was added and the cells were incubated at 37° C., 5% CO2 for 5 hrs. To a second copy of plate, 4 ul of cold acetate were added and the cells were incubated at 37° C., 5% CO2 for 5 hrs. This plate was used for protein concentration measurement. Medium was removed and placed in a 15 ml centrifuge tube (BD, Falcon/352096). Cells were rinsed with 1 ml PBS, then aspirated, and the rinse and aspiration steps were repeated. 0.5 ml of 0.1N NaOH were added to each well and let sit at RT to dissolve cell monolayer. The remaining cell suspension was pooled with medium. For the protein determination plate, an aliquot was removed for protein determination (25 ul). […] 5 ml petroleum ether was added per tube, shaken vigorously, centrifuged at 1000 rpm for 5 min, and 500 uL of the petroleum ether layer was transferred to tubes for Microbeta reading, then 2 ml Aquasol-2 were added to each tube, the tubes were shaken and counted with a Microbeta Liquid Scintillation Counter (Perkin Elmer).
The remaining petroleum ether layer was discarded and the aqueous phase reserved for fatty acid extractions. […] 2 ml of Aquasol-2 was added to each vial, and the vials were shaken and counted on a scintillation counter.

fatty acid synthesis = assay: In Vivo Fatty Acid Synthesis Study ([C14]-acetate incorporated into rat liver tissue); settings: oral, FIG. 8 and FIG. 16
Description: Compounds of the present invention were also assayed in an In Vivo Fatty Acid Synthesis Study as described by Harwood et al. “Isozyme-nonselective N-Substituted Bipiperidylcarboxamide Acetyl-CoA Carboxylase Inhibitors Reduce Tissue Malonyl-CoA Concentrations, Inhibit Fatty Acid Synthesis, and Increase Fatty Acid Oxidation in Cultured Cells and in Experimental Animals” Journal of Biological Chemistry (2008) 278, 37099-37111. An exemplary procedure for the assay, which measures the amount of radioactive [C^14]-acetate incorporated into rat liver tissue, follows.
Animals given food ad water ad libitum were treated orally at a volume of 1.0 mL/200 g body weight (rat) with either an aqueous solution containing 0.5% methylcellulose (vehicle), or an aqueous solution containing 0.5% methylcellulose plus test compound. One to four hours after compound administration, animals received an intraperitoneal injection of 0.5 mL of [C^14]-acetate (64 uCi/mL; […]). […] The pooled organic fractions were transferred to liquid scintillation vials, dried under nitrogen, dissolved in 7 mL of Aquasol liquid scintillation fluid, and assessed for radioactivity using a Beckman 6500 liquid scintillation counter. Results were recorded as disintigrations per minute (DPM) per milligram of tissue.

With `COc1ccccc1[C@H](Cn1c(=O)n(C(C)(C)C(=O)O)c(=O)c2c(C)c(-c3ncco3)sc21)OC1CCOCC1` [I-181, 2-[1-[2-(2-methoxyphenyl)-2-(oxan-4-yloxy)ethyl]-5-methyl-6-(1,3-oxazol-2-yl)-2,4-dioxo-1H,2H,3H,4H-thieno[2,3-d]pyrimidin-3-yl]-2-methylpropanoic acid] as the compound, how does the “incorporation of isotopically labeled acetate into fatty acids” value (HepG2 cells) read?
Its value is “inhibit incorporation of isotopically labeled acetate into fatty acids”.

And the “ED50, fatty acid synthesis in rats” value (fatty acid synthesis)?
The value was “less than 0.3 mg/Kg body weight”.
